Assay results taken from ChEMBL document CHEMBL1201862, “PubChem BioAssay data set” (2004).
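1) Cells in 96-well plates. 2) Compound, 48 h, 5 concentrations. 3) Linear interpolation between surrounding doses. 4) Unreached endpoint = highest concentration. At the GI50, growth is halved.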 Activity calls are given as the source filed them. Rule as the data show it: active = GI50 up to about 1.1 µM and inactive = higher.

What was measured:
Test in all cases: NCI-60 cell line screen, 48 h
[1] = test system: A549
[2] = test system: IGROV-1
[3] = test system: UO-31
[4] = test system: EKVX
[5] = test system: HT-29
[6] = test system: RXF 393
[7] = test system: KM12
[8] = test system: CAKI-1
[9] = test system: HOP-62
[10] = test system: Hs-578T
[11] = test system: M14
[12] = test system: SK-MEL-5
[13] = test system: SNB-19
[14] = test system: SF-295
[15] = test system: SK-MEL-28
[16] = test system: MDA-MB-435
[17] = test system: U-251
[18] = test system: OVCAR-4
[19] = test system: OVCAR-5
[20] = test system: NCI-H226
[21] = test system: TK-10
[22] = test system: UACC-257
[23] = test system: A498
[24] = test system: SK-OV-3
[25] = test system: UACC-62
[26] = test system: ACHN
[27] = test system: NCI-H460
[28] = test system: SF-268
[29] = test system: RPMI-8226
[30] = test system: NCI-H23
[31] = test system: OVCAR-8
[32] = test system: 786-0
[33] = test system: SR
[34] = test system: MCF7
[35] = test system: OVCAR-3
[36] = test system: SF-539
[37] = test system: DU-145
[38] = test system: HL-60
[39] = test system: MDA-N
[40] = test system: SW-620
[41] = test system: MDA-MB-231
[42] = test system: CCRF-CEM
[43] = test system: HCC 2998
[44] = test system: PC-3
[45] = test system: HCT-15
[46] = test system: HCT-116
[47] = test system: COLO 205
[48] = test system: NCI/ADR-RES
[49] = test system: MOLT-4
[50] = test system: SN12C
[51] = test system: LOX IMVI
[52] = test system: SNB-75
[53] = test system: HOP-92
[54] = test system: K562
[55] = test system: SK-MEL-2
[56] = test system: Malme-3M
[57] = test system: T47D

O=C1c2c(O)cccc2Cc2cccc(O)c21 [ANTHRALIN]
GI50 [1]: 0.334 µM (active) | GI50 [2]: 0.375 µM (active) | GI50 [3]: 0.3 µM (active) | GI50 [4]: 0.2 µM (active) | GI50 [5]: 0.322 µM (active) | GI50 [6]: 0.32 µM (active) | GI50 [7]: 0.355 µM (active) | GI50 [8]: 0.337 µM (active) | GI50 [9]: 0.347 µM (active) | GI50 [10]: 0.29 µM (active) | GI50 [11]: 0.256 µM (active) | GI50 [12]: 0.178 µM (active) | GI50 [13]: 0.435 µM (active) | GI50 [14]: 0.269 µM (active) | GI50 [15]: 0.783 µM (active) | GI50 [16]: 0.348 µM (active) | GI50 [17]: 0.313 µM (active) | GI50 [18]: 0.447 µM (active) | GI50 [19]: 0.57 µM (active) | GI50 [20]: 0.314 µM (active) | GI50 [21]: 0.684 µM (active) | GI50 [22]: 0.216 µM (active) | GI50 [23]: 1.22 µM (inactive) | GI50 [24]: 0.351 µM (active) | GI50 [25]: 0.415 µM (active) | GI50 [26]: 0.319 µM (active) | GI50 [27]: 0.334 µM (active) | GI50 [28]: 0.376 µM (active) | GI50 [29]: 0.321 µM (active) | GI50 [30]: 0.327 µM (active) | GI50 [31]: 0.321 µM (active) | GI50 [32]: 0.386 µM (active) | GI50 [33]: 0.31 µM (active) | GI50 [34]: 0.255 µM (active) | GI50 [35]: 0.382 µM (active) | GI50 [36]: 0.273 µM (active) | GI50 [37]: 0.264 µM (active) | GI50 [38]: 0.259 µM (active) | GI50 [39]: 0.321 µM (active)

CC(C)COP(C)(=O)C(N)(C(F)(F)F)C(F)(F)F (stereo not given)
GI50 [40]: > 100 µM (inactive) | GI50 [1]: > 100 µM (inactive) | GI50 [2]: > 100 µM (inactive) | GI50 [41]: > 100 µM (inactive) | GI50 [3]: > 100 µM (inactive) | GI50 [42]: 88.1 µM (inactive) | GI50 [4]: > 100 µM (inactive) | GI50 [5]: > 100 µM (inactive) | GI50 [43]: > 100 µM (inactive) | GI50 [7]: > 100 µM (inactive) | GI50 [44]: > 100 µM (inactive) | GI50 [8]: > 100 µM (inactive) | GI50 [9]: > 100 µM (inactive) | GI50 [45]: > 100 µM | GI50 [46]: > 100 µM (inactive) | GI50 [10]: > 100 µM (inactive) | GI50 [47]: > 100 µM (inactive) | GI50 [11]: > 100 µM (inactive) | GI50 [48]: > 100 µM (inactive) | GI50 [49]: > 100 µM (inactive) | GI50 [12]: > 100 µM (inactive) | GI50 [14]: > 100 µM (inactive) | GI50 [50]: > 100 µM (inactive) | GI50 [15]: > 100 µM (inactive) | GI50 [16]: > 100 µM (inactive) | GI50 [17]: > 100 µM (inactive) | GI50 [18]: > 100 µM (inactive) | GI50 [19]: > 100 µM (inactive) | GI50 [20]: > 100 µM (inactive) | GI50 [21]: > 100 µM (inactive) | GI50 [22]: > 100 µM (inactive) | GI50 [24]: > 100 µM (inactive) | GI50 [25]: > 100 µM (inactive) | GI50 [26]: > 100 µM (inactive) | GI50 [51]: > 100 µM (inactive) | GI50 [28]: > 100 µM (inactive) | GI50 [29]: > 100 µM (inactive) | GI50 [30]: > 100 µM (inactive) | GI50 [31]: > 100 µM (inactive) | GI50 [32]: > 100 µM (inactive) | GI50 [33]: > 100 µM (inactive) | GI50 [52]: 7.78 µM (inactive) | GI50 [34]: > 100 µM (inactive) | GI50 [35]: > 100 µM (inactive) | GI50 [53]: > 100 µM (inactive) | GI50 [36]: > 100 µM (inactive) | GI50 [37]: > 100 µM (inactive) | GI50 [54]: > 100 µM (inactive) | GI50 [55]: > 100 µM (inactive) | GI50 [56]: > 100 µM (inactive) | GI50 [38]: > 100 µM (inactive) | GI50 [39]: > 100 µM (inactive) | GI50 [57]: > 100 µM (inactive)

CCOC(=O)c1cnc(-n2[nH]c(C)c(CCO)c2=O)[nH]c1=O
GI50 [40]: > 100 µM (inactive) | GI50 [1]: > 100 µM (inactive) | GI50 [2]: > 100 µM (inactive) | GI50 [41]: > 100 µM (inactive) | GI50 [3]: > 100 µM (inactive) | GI50 [42]: > 100 µM (inactive) | GI50 [4]: > 100 µM (inactive) | GI50 [5]: > 100 µM (inactive) | GI50 [43]: > 100 µM (inactive) | GI50 [6]: > 100 µM (inactive) | GI50 [7]: > 100 µM (inactive) | GI50 [44]: > 100 µM (inactive) | GI50 [8]: > 100 µM (inactive) | GI50 [9]: > 100 µM (inactive) | GI50 [45]: > 100 µM | GI50 [46]: > 100 µM (inactive) | GI50 [10]: > 100 µM (inactive) | GI50 [47]: > 100 µM (inactive) | GI50 [11]: > 100 µM (inactive) | GI50 [48]: > 100 µM (inactive) | GI50 [49]: > 100 µM (inactive) | GI50 [12]: > 100 µM (inactive) | GI50 [13]: > 100 µM (inactive) | GI50 [14]: > 100 µM (inactive) | GI50 [50]: > 100 µM (inactive) | GI50 [15]: > 100 µM (inactive) | GI50 [16]: > 100 µM (inactive) | GI50 [17]: > 100 µM (inactive) | GI50 [18]: > 100 µM (inactive) | GI50 [19]: > 100 µM (inactive) | GI50 [20]: > 100 µM (inactive) | GI50 [21]: > 100 µM (inactive) | GI50 [22]: > 100 µM (inactive) | GI50 [24]: > 100 µM (inactive) | GI50 [25]: > 100 µM (inactive) | GI50 [26]: > 100 µM (inactive) | GI50 [27]: > 100 µM (inactive) | GI50 [51]: > 100 µM (inactive) | GI50 [28]: > 100 µM (inactive) | GI50 [29]: > 100 µM (inactive) | GI50 [30]: > 100 µM (inactive) | GI50 [31]: > 100 µM (inactive) | GI50 [32]: > 100 µM (inactive) | GI50 [52]: 88.3 µM (inactive) | GI50 [34]: > 100 µM (inactive) | GI50 [35]: > 100 µM (inactive) | GI50 [53]: > 100 µM (inactive) | GI50 [36]: > 100 µM (inactive) | GI50 [37]: > 100 µM (inactive) | GI50 [54]: > 100 µM (inactive) | GI50 [55]: > 100 µM (inactive) | GI50 [56]: > 100 µM (inactive) | GI50 [38]: > 100 µM (inactive) | GI50 [39]: > 100 µM (inactive) | GI50 [57]: > 100 µM (inactive)

NS(=O)(=O)c1ccc(/C=C/c2ccc(O)cc2)cc1
GI50 [40]: 25.6 µM (inactive) | GI50 [41]: 14.8 µM (inactive) | GI50 [3]: 8.73 µM (inactive) | GI50 [4]: 22.7 µM (inactive) | GI50 [43]: 19.7 µM (inactive) | GI50 [6]: 51.6 µM (inactive) | GI50 [44]: 18.8 µM (inactive) | GI50 [9]: 31.5 µM (inactive) | GI50 [46]: 23 µM (inactive) | GI50 [47]: 19.9 µM (inactive) | GI50 [11]: 24.4 µM (inactive) | GI50 [48]: 14 µM (inactive) | GI50 [12]: 11.4 µM (inactive) | GI50 [13]: 44.4 µM (inactive) | GI50 [14]: 21.3 µM (inactive) | GI50 [50]: 18.9 µM (inactive) | GI50 [15]: 27.5 µM (inactive) | GI50 [19]: 40.6 µM (inactive) | GI50 [21]: 43.8 µM (inactive) | GI50 [22]: 30.4 µM (inactive) | GI50 [23]: 41.5 µM (inactive) | GI50 [24]: 23.9 µM (inactive) | GI50 [27]: 18.7 µM (inactive) | GI50 [32]: 10.7 µM (inactive) | GI50 [52]: 15.6 µM (inactive) | GI50 [34]: 17.5 µM (inactive) | GI50 [35]: 19 µM (inactive) | GI50 [53]: 10.7 µM (inactive) | GI50 [37]: 16.2 µM (inactive) | GI50 [55]: 25.9 µM (inactive) | GI50 [56]: 26.9 µM (inactive) | GI50 [39]: 33 µM (inactive) | GI50 [57]: 21.1 µM (inactive)
